Test results from PubChem BioAssay (NCI).
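Exposure lasted 48 hours, with cells grown in 96-well plates and compounds tested at five concentrations. At the TGI there is no net growth.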

Tests used:
Assay in all cases: NCI anticancer screen, dose series, 48 h
NCI-H460 lung = test system: NCI-H460 lung
SNB-19 CNS = test system: SNB-19 CNS
OVCAR-5 ovarian = test system: OVCAR-5 ovarian
TK-10 renal = test system: TK-10 renal
KM20L2 colon = test system: KM20L2 colon
SNB-78 CNS = test system: SNB-78 CNS
SR leukemia = test system: SR leukemia
SNB-75 CNS = test system: SNB-75 CNS
SW-620 colon = test system: SW-620 colon
HT29 colon = test system: HT29 colon
HL-60(TB) leukemia = test system: HL-60(TB) leukemia
LXFL 529 NSCLC = test system: LXFL 529 NSCLC
HOP-92 NSCLC = test system: HOP-92 NSCLC
A498 renal = test system: A498 renal
SK-MEL-2 melanoma = test system: SK-MEL-2 melanoma
U251 CNS = test system: U251 CNS
LOX IMVI melanoma = test system: LOX IMVI melanoma
DMS 273 small cell lung = test system: DMS 273 small cell lung
OVCAR-4 ovarian = test system: OVCAR-4 ovarian
CCRF-CEM leukemia = test system: CCRF-CEM leukemia
HCT-15 colon = test system: HCT-15 colon
NCI-H226 lung = test system: NCI-H226 lung
M14 melanoma = test system: M14 melanoma
SK-OV-3 ovarian = test system: SK-OV-3 ovarian
SK-MEL-28 melanoma = test system: SK-MEL-28 melanoma
SF-539 CNS = test system: SF-539 CNS
786-0 renal = test system: 786-0 renal
UACC-257 melanoma = test system: UACC-257 melanoma
UACC-62 melanoma = test system: UACC-62 melanoma
K-562 leukemia = test system: K-562 leukemia
DMS 114 small cell lung = test system: DMS 114 small cell lung
CAKI-1 renal = test system: CAKI-1 renal
MALME-3M melanoma = test system: MALME-3M melanoma
UO-31 renal = test system: UO-31 renal
OVCAR-3 ovarian = test system: OVCAR-3 ovarian
SN12C renal = test system: SN12C renal
KM12 colon = test system: KM12 colon
OVCAR-8 ovarian = test system: OVCAR-8 ovarian
NCI-H522 lung = test system: NCI-H522 lung
COLO 205 colon = test system: COLO 205 colon
RXF 393 renal = test system: RXF 393 renal
HCC-2998 colon = test system: HCC-2998 colon
HOP-62 NSCLC = test system: HOP-62 NSCLC
M19-MEL melanoma = test system: M19-MEL melanoma
HOP-18 NSCLC = test system: HOP-18 NSCLC
DLD-1 colon = test system: DLD-1 colon
HCT-116 colon = test system: HCT-116 colon
NCI-H23 lung = test system: NCI-H23 lung
SF-295 CNS = test system: SF-295 CNS
XF 498 CNS = test system: XF 498 CNS
SF-268 CNS = test system: SF-268 CNS
SK-MEL-5 melanoma = test system: SK-MEL-5 melanoma
ACHN renal = test system: ACHN renal
RPMI-8226 leukemia = test system: RPMI-8226 leukemia
A549 NSCLC = test system: A549 NSCLC
EKVX NSCLC = test system: EKVX NSCLC
IGROV1 ovarian = test system: IGROV1 ovarian
MOLT-4 leukemia = test system: MOLT-4 leukemia

Measured: TGI

O=C(/C=C/c1cccc([N+](=O)[O-])c1)c1cccnc1
59.2 µM: CCRF-CEM leukemia
97.7 µM: UACC-257 melanoma
> 94.2 µM: SNB-78 CNS
40.1 µM: LOX IMVI melanoma
> 78.5 µM: K-562 leukemia
48.3 µM: HL-60(TB) leukemia | SF-539 CNS
> 86.4 µM: SF-268 CNS
> 62.9 µM: A498 renal | SN12C renal
68.8 µM: OVCAR-3 ovarian
70.4 µM: IGROV1 ovarian
25.3 µM: NCI-H522 lung
30.5 µM: 786-0 renal
> 31.2 µM: HOP-18 NSCLC
> 90.8 µM: CAKI-1 renal
43.3 µM: KM12 colon
> 70.7 µM: UO-31 renal
> 66.1 µM: HCC-2998 colon
60.8 µM: SK-MEL-28 melanoma
> 87.1 µM: COLO 205 colon
33.3 µM: HCT-116 colon
19.6 µM: M14 melanoma
> 100 µM: NCI-H460 lung | OVCAR-5 ovarian | TK-10 renal | HOP-92 NSCLC | SK-MEL-2 melanoma | OVCAR-4 ovarian | HCT-15 colon | NCI-H226 lung | SK-OV-3 ovarian | MALME-3M melanoma | OVCAR-8 ovarian | HOP-62 NSCLC | SF-295 CNS | ACHN renal | A549 NSCLC | EKVX NSCLC
> 67.9 µM: M19-MEL melanoma
62.5 µM: SR leukemia
> 67.8 µM: KM20L2 colon
37.5 µM: SW-620 colon
> 94.7 µM: SNB-19 CNS
52.9 µM: DMS 114 small cell lung
43 µM: LXFL 529 NSCLC
> 91.5 µM: SNB-75 CNS
69.6 µM: DMS 273 small cell lung
52.2 µM: DLD-1 colon
34.4 µM: RXF 393 renal
22.3 µM: SK-MEL-5 melanoma
> 82.4 µM: UACC-62 melanoma
56.1 µM: U251 CNS
42.9 µM: HT29 colon
44.8 µM: NCI-H23 lung | RPMI-8226 leukemia
> 81.1 µM: XF 498 CNS
63.5 µM: MOLT-4 leukemia

CN1C(=O)N(C)C(N2CCCC2)c2c1nc1ccccn1c2=O (centres undefined)
> 100 µM: NCI-H460 lung | SNB-19 CNS | TK-10 renal | KM20L2 colon | SNB-78 CNS | SR leukemia | SNB-75 CNS | SW-620 colon | HT29 colon | HL-60(TB) leukemia | LXFL 529 NSCLC | HOP-92 NSCLC | A498 renal | SK-MEL-2 melanoma | U251 CNS | LOX IMVI melanoma | DMS 273 small cell lung | OVCAR-4 ovarian | CCRF-CEM leukemia | HCT-15 colon | NCI-H226 lung | M14 melanoma | SK-OV-3 ovarian | SK-MEL-28 melanoma | SF-539 CNS | 786-0 renal | UACC-257 melanoma | UACC-62 melanoma | K-562 leukemia | DMS 114 small cell lung | MALME-3M melanoma | UO-31 renal | OVCAR-3 ovarian | SN12C renal | KM12 colon | OVCAR-8 ovarian | NCI-H522 lung | COLO 205 colon | RXF 393 renal | HCC-2998 colon | HOP-62 NSCLC | M19-MEL melanoma | HOP-18 NSCLC | DLD-1 colon | HCT-116 colon | NCI-H23 lung | SF-295 CNS | XF 498 CNS | SF-268 CNS | ACHN renal | RPMI-8226 leukemia | A549 NSCLC | EKVX NSCLC | IGROV1 ovarian | MOLT-4 leukemia

Cc1c2nc3ccccc3sc-2cc(=O)c1C
79.7 µM: DMS 114 small cell lung
> 90.6 µM: OVCAR-3 ovarian
> 85.5 µM: HL-60(TB) leukemia
> 89.2 µM: COLO 205 colon
> 91.6 µM: K-562 leukemia
29.7 µM: M19-MEL melanoma
> 25.2 µM: SK-MEL-2 melanoma
> 100 µM: NCI-H460 lung | SNB-19 CNS | OVCAR-5 ovarian | TK-10 renal | KM20L2 colon | SNB-78 CNS | SNB-75 CNS | SW-620 colon | HT29 colon | LXFL 529 NSCLC | HOP-92 NSCLC | A498 renal | U251 CNS | LOX IMVI melanoma | DMS 273 small cell lung | OVCAR-4 ovarian | CCRF-CEM leukemia | HCT-15 colon | NCI-H226 lung | M14 melanoma | SK-OV-3 ovarian | SK-MEL-28 melanoma | SF-539 CNS | 786-0 renal | CAKI-1 renal | MALME-3M melanoma | UO-31 renal | KM12 colon | OVCAR-8 ovarian | NCI-H522 lung | RXF 393 renal | HCC-2998 colon | HOP-62 NSCLC | HOP-18 NSCLC | DLD-1 colon | HCT-116 colon | NCI-H23 lung | SF-295 CNS | XF 498 CNS | SF-268 CNS | SK-MEL-5 melanoma | ACHN renal | RPMI-8226 leukemia | A549 NSCLC | EKVX NSCLC | IGROV1 ovarian | MOLT-4 leukemia
> 46.8 µM: UACC-257 melanoma
70.3 µM: UACC-62 melanoma
